The values that follow are results of earlier work, collected in patent EP0731703B1, “LIPOSOMAL FORMULATIONS CONTAINING VIDARABINE OR ITS DERIVATIVES” (INSTITUTO NACIONAL DE ENGENHARIA E TECNOLOGIA …, priority 1993, dated 1995).

For this data set the following is noted: literature (Schabel 1968; LePage et al. 1972).

On to `Nc1ncnc2c1ncn2[C@@H]1O[C@H](CO)[C@@H](O)[C@@H]1O` [ARA-A, 9-β-D-arabinofuranosyladenine], for which the aqueous solubility entry is listed as “poor aqueous solubility”.

For `Nc1ncnc2c1ncn2[C@@H]1O[C@H](COP(=O)(O)O)[C@@H](O)[C@@H]1O` [ARA-AMP, 9-β-D--arabinofuranosyladenine monophosphate], the aqueous solubility result is “water-soluble”.
